Molecular target: T1, SCD5 (Homo sapiens, UniProt Q86SK9)
T1 construct: host or cells: S. cerevisiae ole1Δ strain (W303 pdr1Δ pdr3Δ background), plasmid pRS316 with TDH3 promoter and CYC1 terminator
T1 sequence (Q86SK9 1-330): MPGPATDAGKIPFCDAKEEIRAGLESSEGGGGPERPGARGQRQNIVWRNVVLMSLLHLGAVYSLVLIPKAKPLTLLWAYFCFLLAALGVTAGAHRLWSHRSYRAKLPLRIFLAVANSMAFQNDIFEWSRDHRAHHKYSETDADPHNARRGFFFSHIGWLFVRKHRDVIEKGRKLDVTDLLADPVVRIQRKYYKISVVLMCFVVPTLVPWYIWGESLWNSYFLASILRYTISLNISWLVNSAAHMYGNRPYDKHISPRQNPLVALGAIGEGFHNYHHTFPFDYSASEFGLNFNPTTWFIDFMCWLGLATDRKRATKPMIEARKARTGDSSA
Experiment: Growth inhibition of humanized yeast strain expressing SCD5 as sole desaturase
Type: cell-based
Conditions: humanized yeast strain expressing SCD5
Experimental: Strain oleΔ (yeast ole1 deletion mutant) was constructed by deleting OLE1 with NAT-MX6 in BY4741, amplifying the deletion cassette from the genomic DNA of the resulting strain with primers flanking the ORF by 1000 bp upstream and downstream, transforming the resulting deletion cassette into W303 pdr1Δ pdr3Δ, and plating transformants on YPD media containing G418 (200 μg/mL) and nourseothricin ([…]) with 0.01% TWEEN®-20 and 0.5 mM oleic and palmitoleic acids.
The coding sequence of yeast OLE1 was also cloned into this plasmid). These clones were then transformed into the ole1Δ strain and plated on CSM-Ura media (CSM lacking uracil) with 2% glucose (w/v) and independent colonies were isolated and amplified.
All compound profiling experiments were performed using the same basic protocol. Different genetic backgrounds (e.g., gene deletions) or conditions (e.g., addition of oleic and palmitoleic acid) were replaced as indicated below.
Yeast were cultured using standard techniques in complete synthetic media (CSM) and yeast nitrogen base supplemented with 2% (w/v) carbon source (glucose, raffinose, or galactose) to regulate the expression of the toxic disease protein. An initial starter culture was inoculated in 3 mL CSM-Glucose media and incubated overnight in a 30° C. shaker incubator (225 rpm). Saturated morning cultures were then diluted 1:20 in fresh CSM-Raffinose media and grown for 6 h to an OD600 (optical density) of ˜0.4-0.8 at 30° C. with shaking.
Compound administration was performed in two separate steps. First, 15 μL of CSM-Galactose (induces expression of toxic protein) was dispensed into clear 384 well assay plates using a MULTIDROP™ Combi reagent dispenser. […] The cultures described above were then diluted to a 2× concentration (0.03 and 0.08 for alpha-synuclein and ApoE, final ODsoo of 0.015 and 0.04) in CSM-Galactose. For wild-type and Ole1/SCD1/SCD5 plasmid-containing strains, the 2× cell density was 0.02. […] For 96-well assays (FIGS. 1A and 1B), compound dilutions in DMSO were generated in 96 well plates and 1 μL was manually pipetted into 96 well clear bottom assay plates.
For experiments using a plasmid-borne copy of Ole1, SCD1, or SCD5 (FIGS. 3B, 6, and 7), media lacking uracil (SX-Ura, where X is glucose, raffinose, or galactose), was used for all steps of the compound profiling protocol to ensure its maintenance throughout the assay.
After yeast delivery, assay plates were incubated under humidified conditions at 30° C. for 24 to 40 h. ApoE4 rescue experiments were stopped at 24 h, aSyn experiments at 40 h, Ole1 at 24 h, and SCD1/SCD5 at 40 h. The growth of yeast was monitored by reading the ODsoo of each well using a microplate reader (Perkin Elmer EnVision™).

`CC(C)n1ncc2ccc(-c3noc(C4CCN(C(=O)[C@H]5CC(=O)N(c6cccc(C#N)c6)C5)CC4)n3)cc21` [Compound 529] and `CC(C)n1ncc2ccc(-c3noc(C4CCN(C(=O)[C@@H]5CC(=O)N(c6cccc(C#N)c6)C5)CC4)n3)cc21` [Compound 528] cannot be ordered by IC50: over 45000 nM for the first, over 45000 nM for the second.

`COC(=O)N1C[C@H]2CN(c3nc(-c4ccc5cnn(C(C)C)c5c4)no3)C[C@@H]2C1` [Compound 568] and `CC(C)n1ncc2ccc(-c3noc(N4C[C@@H]5CNC[C@H]5C4)n3)cc21` [Compound 530] cannot be ordered by IC50: over 45000 nM for the first, over 45000 nM for the second.

First: COC(=O)N1CCC2(CC1)CN(c1nc(-c3ccc4cnn(C(C)C)c4c3)no1)C2 [Compound 570]
Second: CC(=O)N1CCC2(CC1)CN(c1nc(-c3ccc4cnn(C(C)C)c4c3)no1)C2 [Compound 571]
The IC50 of the first is lower: 26300 nM for the first, over 45000 nM for the second. The first is the more potent here.

Compared with `CC(C)n1ncc2ccc(-c3noc(C4CCN(C(=O)c5cccs5)CC4)n3)cc21` [Compound 574], `CC(C)n1ncc2ccc(-c3noc(C4CCN(C(=O)c5cscn5)CC4)n3)cc21` [Compound 573] is 2.5-fold higher in IC50: 2280 nM for the first, 5600 nM for the second. The first is the more potent here.

Compared with `CC(C)n1ncc2ccc(-c3noc(N4CC5(CCN(C(=O)OC(C)(C)C)CC5)C4)n3)cc21` [Compound 555], `Cn1ncc2ccc(-c3noc(N4CCN(C(=O)OC(C)(C)C)CC4)n3)cc21` [Compound 545] is lower in IC50: over 45000 nM for the first, 18900 nM for the second. The second is the more potent here.

Compared with `Cc1nn(C)c2cc(-c3noc(C4CCN(C(=O)CC5COC5)CC4)n3)ccc12` [Compound 592], `O=C(CC1CC1)N1CCC(c2nc(-c3ccc4cnn(C5COC5)c4c3)no2)CC1` [Compound 558] is lower in IC50: over 45000 nM for the first, 1070 nM for the second.

`Cc1nn(C)c2cc(-c3noc([C@@H]4CCN(C(=O)CNC(=O)c5ccccc5)CC4(F)F)n3)ccc12` [Compound 577] and `O=C(NCC(=O)N1CCC(c2nc(-c3ccc4cnn(C5COC5)c4c3)no2)CC1)c1ccccc1` [Compound 598] cannot be ordered by IC50: over 45000 nM for the first, over 45000 nM for the second.

First: C[C@@H](O)C(=O)N1CCC(c2nc(-c3ccc4cnn(C5COC5)c4c3)no2)CC1 [Compound 597]
Second: O=C(c1ccccc1Cl)N1CCC(c2nc(-c3ccc4cnn(C5COC5)c4c3)no2)CC1 [Compound 562]
The IC50 of the first is higher: over 45000 nM for the first, 1500 nM for the second.

First: CC(C)n1ncc2ccc(-c3nc(C4CCN(C(=O)c5cccc(F)c5)CC4)no3)cc21 [Compound 506]
Second: CC(C)n1ncc2ccc(-c3noc(C4CCN(C(=O)c5ccc(Cl)cc5F)CC4)n3)cc21 [Compound 533]
The IC50 of the first is 4.1-fold lower: 810 nM for the first, 3330 nM for the second. The first is the more potent here.

Compared with `CC(C)n1ncc2ccc(-c3noc(C4=C(F)CN(C(=O)OC(C)(C)C)CC4)n3)cc21` [Compound 510], `CC(C)n1ncc2ccc(-c3noc([C@@H]4[C@@H]5CN(C(=O)OC(C)(C)C)C[C@@H]54)n3)cc21` [Compound 498] is higher in IC50: 4160 nM for the first, over 45000 nM for the second.

Going from `CC(C)n1ncc2ccc(-c3noc(N4CCN(C(=O)CC5(C)CC5)CC4)n3)cc21` [Compound 495] to `CC(C)n1ncc2ccc(-c3nc(C4CCN(C(=O)CC5(C)CC5)CC4)no3)cc21` [Compound 546], the IC50 falls from 1920 nM to 19 nM (100-fold). The second is the more potent here.

`CCc1cnc(N2CCC(c3nc(-c4ccc5c(C)nn(C)c5c4)no3)CC2)cn1` [Compound 560] and `CC(C)CS(=O)(=O)N1CCC(c2nc(-c3ccc4cnn(C(C)C)c4c3)no2)CC1` [Compound 565] cannot be ordered by IC50: over 45000 nM for the first, over 45000 nM for the second.

Going from `CC(C)n1ncc2ccc(-c3nc(N4CCN(C(=O)c5ccccc5)CC4)no3)cc21` [Compound 582] to `CC(C)n1ncc2ccc(-c3noc(C4CCN(S(=O)(=O)c5ccccc5Cl)CC4)n3)cc21` [Compound 540], the IC50 rises from 176 nM to over 45000 nM. The first is the more potent here.

`COc1ccc(S(=O)(=O)N2CCC(c3nc(-c4ccc5cnn(C(C)C)c5c4)no3)CC2)c(Br)c1` [Compound 539] and `CC(C)n1ncc2ccc(N3CC4(CCNCC4)C3)cc21` [Compound 538] cannot be ordered by IC50: over 45000 nM for the first, over 45000 nM for the second.

Same assay, conditions: yeast strain expressing human SCD5 as sole desaturase; Table 8

In order of falling IC50:
1. CC(C)CC(=O)N1CCC(c2cc(-c3cnc4cnn(C5COC5)c4c3)on2)CC1 [Compound 1231]  16400 nM
2. CCC(=O)N1CCC(c2noc(-c3cc(N4CCC(F)(F)C4)c(F)cn3)n2)CC1 [Compound 1311]  7740 nM
3. CC(C)(C)OC(=O)N1CCC(c2cc(-c3ccnc(C4CCOC4)n3)no2)CC1 (stereo not drawn) [Compound 1202]  7130 nM
4. COC(=O)N1CCC(c2nc(-c3ccnc(C4CCOC4)c3)no2)CC1 (stereo not drawn) [Compound 1230]  6880 nM
5. CC1CN(c2cc(-c3nc(C4CCN(C(=O)C(C)C)CC4)no3)ccc2F)CC(C)O1 (stereo not drawn) [Compound 1305]  5390 nM
6. CC1(OC(=O)N2CCC(c3noc(-c4ccnc(-c5ccon5)c4)n3)CC2)CC1 [Compound 1306]  5380 nM
7. CC(C)(C)OC(=O)N1CCC(c2noc(-c3cc(F)c(F)c(N4CCOCC4)c3)n2)CC1 [Compound 1301]  5180 nM
8. CC(C)C(=O)N1CCC(c2noc(-c3ccnc(-c4cnco4)c3)n2)CC1 [Compound 1264]  3270 nM
9. O=C(C1CC1)N1CCC(c2noc(-c3cc(C4CCOC4)ccn3)n2)CC1 (stereo not drawn) [Compound 1278]  2730 nM
10. CC(C)(C)OC(=O)N1CCC(c2noc(-c3ccnc(-c4ccon4)c3)n2)CC1 [Compound 1277]  2500 nM
11. CC(C)C(=O)N1CCC(c2noc(-c3cc(C4CCOC4)ccn3)n2)CC1 (stereo not drawn) [Compound 1204]  2390 nM
12. CC(C)C(=O)N1CCC(c2noc(N3CCc4cnn(C5COC5)c4C3)n2)CC1 [Compound 1223]  2300 nM
13. O=C(N1CCC(c2nc(-c3ccnc(C4CCOC4)c3)no2)CC1)C1(F)CC1 (stereo not drawn) [Compound 1229]  1510 nM
14. O=C(OC1CCC1)N1CCC(c2noc(-c3ccc(=O)n(C4COC4)c3)n2)CC1 [Compound 1309]  1030 nM
15. CC(C)C(=O)N1CCC(c2noc(-c3ccc(C#N)c(N4CCOCC4)c3)n2)CC1 [Compound 1291]  650 nM
16. O=C(C1CCC1)N1CCC(c2noc(-c3ccnc(O[C@@H]4CCOC4)c3)n2)CC1 [Compound 1269]  590 nM
17. CC(C)(C)OC(=O)N1CCC(c2noc(-c3ccnc(-c4cnco4)c3)n2)CC1 [Compound 1245]  580 nM
18. CC1(C(=O)N2CCC(c3noc(-c4cncc(C5CCOC5)c4)n3)CC2)CCC1 (stereo not drawn) [Compound 1270]  400 nM
19. O=C(C1CCC1)N1CCC(c2noc(-c3ccnc([C@@H]4CCOC4)c3)n2)CC1 [Compound 1242]  380 nM
20. CC(C)(C)OC(=O)N1CCC(c2noc(-c3cc(N4CCC(F)(F)C4)c(F)cn3)n2)CC1 [Compound 1287]  340 nM
21. CCS(=O)(=O)N1CCC(c2noc(-c3ccc4cnn(C5COC5)c4c3)n2)CC1 [Compound 1216]  330 nM
22. O=C(C1CCC1)N1CCC(c2noc(-c3ccnc([C@H]4CCOC4)c3)n2)CC1 [Compound 1240]  200 nM
23. COC(=O)N1CCC(c2noc(-c3cc(C4CCOC4)ncc3F)n2)CC1 (stereo not drawn) [Compound 1274]  190 nM
24. CC(C)S(=O)(=O)N1CCC(c2noc(-c3ccc4cnn(C5COC5)c4c3)n2)CC1 [Compound 1218]  160 nM
25. CC(C)(C)OC(=O)N1CCC(c2cc(-c3cnc4cnn(C5COC5)c4c3)on2)CC1 [Compound 1225]  120 nM
26. CC1(OC(=O)N2CCC(c3noc(-c4ccnc(-c5cnoc5)c4)n3)CC2)CC1 [Compound 1220]  100 nM
27. CC(C)(C)OC(=O)N1CCC(c2noc(-c3ccnc(-c4cnoc4)c3)n2)CC1 [Compound 1213]  60 nM
28. CCC(=O)N1CCC(c2noc(-c3cc(N4CCOCC4)ccn3)n2)CC1 [Compound 1300]  60 nM
29. CC(C)(C)OC(=O)N1CCC(c2noc(-c3ccc(F)c(N4CCOC5(CC5)C4)c3)n2)CC1 [Compound 1303]  50 nM
30. O=C(C1CC1)N1CCC(c2noc(-c3ccc(F)c(N4CCOCC4)c3)n2)CC1 [Compound 1259]  40 nM
31. O=C(C1CCC1)N1CCC(c2noc(-c3ccc(F)c(N4CCOCC4)c3)n2)CC1 [Compound 1258]  40 nM
32. CC(C)(C)OC(=O)N1CCC(c2noc(-c3cc(C4CCOC4)c(F)cn3)n2)CC1 (stereo not drawn) [Compound 1284]  20 nM

Reference: US11873298B2, “Compounds and uses thereof” (JANSSEN PHARMACEUTICA NV, priority 2017, dated 2024)
